The values that follow come from paper PMC12530851, “Design, synthesis, and apoptotic antiproliferative activity of novel dihydropyrimidine-5-carbonitrile/1,2,4-oxadiazole hybrids as dual EGFR/VEGFR-2 inhibitors endowed with antioxidant activity” (RSC Advances, 2025).

The experiment has as its system Bax. The experiment in a line: Bax activation assay in MCF-7 cells. Type of experiment: cell-based, human. Particulars: for Bax Fold change: vs untreated control. The method, then:
Compounds10k and 10l were tested as caspases-3, 8, 9, Bax and p53 activators and as down-regulators of the anti-apoptotic protein Bcl2 against the MCF-7 breast cancer cell line.[41] Appendix A gives more details.
The Bcl-2 protein family, which includes pro-apoptotic proteins (Bax) and anti-apoptotic proteins (Bcl-2), primarily regulates apoptosis.[46] […] Consequently, we assessed the expression levels of Bcl-2 and Bax proteins in MCF-7 breast cancer cells treated with compounds 10k and 10l, Table 6. […]
Cells were obtained from American Type Culture Collection, cells were grown in RPMI 1640 containing 10% fetal bovine serum at 37°C, stimulated with the compounds to be tested for caspase 8/9, and lysed with Cell Extraction Buffer. This lysate was diluted in Standard Diluent Buffer over the range of the assay and measured for human active caspase-8/9 content. (Cells are Plated in a density of 1.2 – 1.8 × 10,000 cells/well in a volume of 100µl complete growth medium + 100 ul of the tested compound per well in a 96-well plate for 24 hours before the enzyme assay). […]
4.2.7. Bax activation assay
Bring all reagents, except the human Bax-α Standard, to room temperature for at least 30 minutes prior to opening. The human Bax-α Standard solution should not be left at room temperature for more than 10 minutes. All standards, controls and samples should be run in duplicate. Refer to the Assay Layout Sheet to determine the number of wells to be used and put any remaining wells with the desiccant back into the pouch and seal the ziploc. Store unused wells at 4 °C. Pipet 100 μL of Assay Buffer into the S0 (0 pg/mL standard) wells. Pipet 100 μL of Standards #1 through #6 into the appropriate wells. Pipet 100 μL of the Samples into the appropriate wells. Tap the plate gently to mix the contents. Seal the plate and incubate at room temperature on a plate shaker for 1 hour at ~500 rpm. Empty the contents of the wells and wash by adding 400 μL of wash solution to every well. Repeat the wash 4 more times for a total of 5 washes. After the final wash, empty or aspirate the wells and firmly tap the plate on a lint free paper towel to remove any remaining wash buffer.
Pipet 100 μL of yellow Antibody into each well, except the Blank. Seal the plate and incubate at room temperature on a plate shaker for 1 hour at ~500 rpm. Empty the contents of the wells and wash by adding 400 μL of wash solution to every well. Repeat the wash 4 more times for a total of 5 washes. […]
Pipet 100 μL of Substrate Solution into each well. […] Blank the plate reader against the Blank wells, read the optical density at 450 nm. […]
The concentration of Bax in the unknowns can be determined by interpolation. […]

Molecules are shown by their SMILES.

In the case of `COc1ccc(-c2nc(SCc3nc(-c4ccc(Cl)cc4)no3)[nH]c(=O)c2C#N)cc1` [Compound 10k, 2-(((3-(4-Chlorophenyl)-1,2,4-oxadiazol-5-yl)methyl)thio)-4-(4-methoxyphenyl)-6-oxo-1,6-dihydropyrimidine-5-carbonitrile], the Bax is 545 ± 3 pg/mL and the “Bax Fold change” value is recorded as 9 fold.
For `COc1ccc(-c2noc(CSc3nc(-c4ccc(OC)cc4)c(C#N)c(=O)[nH]3)n2)cc1` [Compound 10l, 2-(((3-(4-Methoxyphenyl)-1,2,4-oxadiazol-5-yl)methyl)thio)-4-(4-methoxyphenyl)-6-oxo-1,6-dihydropyrimidine-5-carbonitrile] the same measures were 505 ± 3 pg/mL and 8 fold.
